Like-named read-outs stand apart in the source and are kept apart here.
How the values were obtained:
DNA-PK = DNA-PK (Homo sapiens (Human), UniProt P78527); experiment: DNA-PK assay (biochemical), flashplate 33P-ATP kinase assay
In short: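 Reactions ran in streptavidin-coated flashplates and were halted by 200 mM EDTA, with a further 30 min at room temperature before saline washing.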

Kv11.1 (hERG) = Kv11.1 (hERG) (Homo sapiens (Human), UniProt Q12809); experiment: Kv11.1 (hERG) ion channel activity (patch clamp assay), HEK293 cells transfected with hERG gene
Kv11.1 (hERG), sequence (Q12809 whole entry): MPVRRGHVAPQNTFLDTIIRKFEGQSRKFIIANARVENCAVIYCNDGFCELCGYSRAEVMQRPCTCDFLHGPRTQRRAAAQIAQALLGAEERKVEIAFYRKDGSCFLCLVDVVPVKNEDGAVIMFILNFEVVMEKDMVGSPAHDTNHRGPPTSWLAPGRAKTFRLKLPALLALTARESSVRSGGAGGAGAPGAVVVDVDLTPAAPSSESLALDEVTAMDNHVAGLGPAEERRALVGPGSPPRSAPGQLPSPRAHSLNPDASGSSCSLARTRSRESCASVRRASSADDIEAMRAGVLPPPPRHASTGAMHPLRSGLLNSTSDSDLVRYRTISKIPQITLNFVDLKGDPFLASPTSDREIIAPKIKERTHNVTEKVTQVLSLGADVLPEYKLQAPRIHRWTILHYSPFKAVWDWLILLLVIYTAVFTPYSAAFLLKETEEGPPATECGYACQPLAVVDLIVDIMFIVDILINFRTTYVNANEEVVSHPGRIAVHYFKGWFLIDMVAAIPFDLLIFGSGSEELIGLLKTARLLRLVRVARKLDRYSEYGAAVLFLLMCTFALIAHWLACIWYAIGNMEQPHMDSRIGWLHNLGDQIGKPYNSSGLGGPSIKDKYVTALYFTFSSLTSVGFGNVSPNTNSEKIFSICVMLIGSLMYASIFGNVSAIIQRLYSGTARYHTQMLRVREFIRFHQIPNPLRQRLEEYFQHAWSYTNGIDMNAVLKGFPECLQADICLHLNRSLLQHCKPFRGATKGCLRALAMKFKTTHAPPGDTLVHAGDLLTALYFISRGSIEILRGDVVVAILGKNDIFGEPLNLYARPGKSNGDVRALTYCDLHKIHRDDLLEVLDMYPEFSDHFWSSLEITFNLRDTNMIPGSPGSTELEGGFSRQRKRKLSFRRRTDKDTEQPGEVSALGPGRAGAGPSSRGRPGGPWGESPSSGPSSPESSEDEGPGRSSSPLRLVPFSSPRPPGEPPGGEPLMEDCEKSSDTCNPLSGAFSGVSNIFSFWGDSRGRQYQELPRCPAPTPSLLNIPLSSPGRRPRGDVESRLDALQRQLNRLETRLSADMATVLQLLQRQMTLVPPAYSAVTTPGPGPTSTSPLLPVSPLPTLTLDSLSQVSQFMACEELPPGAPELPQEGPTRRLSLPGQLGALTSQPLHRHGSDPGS

[1] = target: DNA-PK phosphorylation at serine 2056 (Homo sapiens (Human), UniProt P78527); experiment: DNA-PK phosphorylation at serine 2056 (cellular), bleomycin-treated HCT116 cells, ELISA; assay type: cell-based; details: read-out: IC50 pDNA-PK
In short: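 HCT116 cells grown overnight were co-treated with 10 μM bleomycin and test compound for 6 h at 37 °C. Phospho-DNA-PK was quantified by chemiluminescent ELISA and normalised to total DNA-PKcs signal, with DMSO control as blank.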

[2] = read-out: Ki [Kv1.11 hERG], hERG patch clamp assay (cells without asterisk)
[3] = cellular DNA-PK phosphorylation at serine 2056, HCT116
[4] = Ki [Kv1.11 hERG], patch clamp, HEK293 transfected with hERG gene
[5] = cellular, HCT116 cells, 10 μM bleomycin, six hours
[6] = read-out: Ki [Kv1.11 hERG], patch clamp, HEK293 transfected with hERG gene
[7] = Ki [Kv1.11 hERG], hERG patch clamp assay (cells without asterisk)

| IC50 (DNA-PK; biochemical DNA-PK assay) [µM] | IC50 [1, 3] [µM] | Compound | Ki (Kv11.1 (hERG); [2]) [µM] | also measured |
| --- | --- | --- | --- | --- |
| 0.007 to 0.03 | 10 to 30 | Cn1cnc2ncnc([C@H](O)c3cc(-c4ncnc5cc(N6CCOCC6)ccc45)c(F)cc3F)c21 [Example 384, (R)-[2,4-Difluoro-5-(7-morpholin-4-yl-quinazolin-4-yl)-phenyl]-(7-methyl-7H-purin-6-yl)-methanol] | > 25 |  |
| 0.003 to 0.007 | < 0.5 | Cn1ncc2c(C(O)c3ccc(F)c(-c4ncnc5cc(N6CCOCC6)ccc45)c3)ncnc21 (stereo not drawn) [Example 404, [4-Fluoro-3-(7-morpholin-4-yl-quinazolin-4-yl)-phenyl]-(1-methyl-1H-pyrazolo[3,4-d}-pyrimidin-4-yl)-methanol] | > 25 |  |
|  |  | OCCNc1nccnc1C(O)c1ccc(F)c(-c2ncnc3cc(N4CCOCC4)ccc23)c1 (stereo not drawn) [Example 106, 2-(3-{[4-fluoro-3-(7-morpholin-4-yl-quinazolin-4-yl)-phenyl]hydroxy-methyl}pyrazin-2-yl-amino)ethanol] |  | IC50 (DNA-PK; enzymatic, 5 μM ATP): 0.007 to 0.03 µM; Ki (Kv11.1 (hERG); [4]): 15 to 25 µM; IC50 [1, 5]: 5 to 10 µM |
| 0.003 to 0.007 | < 0.5 | OC(c1cc(-c2ncnc3cc(N4CCOCC4)ccc23)c(F)cc1Cl)c1nccn2ccnc12 (stereo not drawn) [Example 397, [2-Chloro-4-fluoro-5-(7-morpholin-4-yl-quinazolin-4-yl)-phenyl]imidazo-[1,2-a]pyrazin-8-yl-methanol] | > 25 |  |
|  |  | COc1nccnc1C(O)c1ccc(F)c(-c2ncnc3cc(N4CCOCC4)ccc23)c1 (stereo not drawn) [Example 38, [4-Fluoro-3-(7-morpholin-4-yl-quinazolin-4-yl)phenyl]-(3-methoxy-pyrazin-2-yl)methanol] |  | IC50 (DNA-PK; enzymatic, 5 μM ATP): < 0.003 µM; Ki (Kv11.1 (hERG); [6]): > 25 µM; IC50 [1, 5]: < 0.5 µM |
| < 0.003 | 0.5 to 5 | O=c1[nH]nc(C(O)c2ccc(F)c(-c3ncnc4cc(N5CCOCC5)ccc34)c2)c2sccc12 (stereo not drawn) [Example 337, 7-[[4-Fluoro-3-(7-morpholino-quinazolin-4-yl)-phenyl]hydroxy-methyl]-5H-thieno-[2,3-d}pyridazin-4-one] |  | Ki (Kv11.1 (hERG); [7]): 15 to 25 µM |
| > 0.03 | 10 to 30 | Cn1nc(C(C(N)=O)c2cc(-c3ncnc4cc(N5CCOCC5)ccc34)c(F)cc2Cl)ccc1=O (stereo not drawn) [Example 311, 2-[2-Chloro-4-fluoro-5-(7-morpholin-4-yl-quinazolin-4-yl)-phenyl]-2-(1-methyl-6-oxo-1,6-dihydro-pyridazin-3-yl)-acetamide] | > 25 |  |
| 0.007 to 0.03 | 5 to 10 | OC(c1cc(-c2ncnc3cc(N4CCOCC4)ccc23)c(F)cc1Cl)c1nccn2ccnc12 (single isomer, unassigned) [Example 395, [2-Chloro-4-fluoro-5-(7-morpholin-4-yl-quinazolin-4-yl)-phenyl)imidazo-[1,2-a]pyrazin-8-yl-methanol] |  | Ki (Kv11.1 (hERG); human, HEK293 cells stably transfected with the hERG gene, Ki [Kv1.11 hERG], hERG patch clamp assay (cells without asterisk)): 15 to 25 µM |
|  |  | Cc1nccnc1[C@H](O)c1cc(-c2ncnc3cc(N4CCOCC4)ccc23)c(F)cc1F [Example 84, [2,4-Difluoro-5-(7-morpholin-4-yl-quinazolin-4-yl)-phenyl]-(3-methyl-pyrazin-2-yl)methanol] |  | IC50 (DNA-PK; enzymatic, 5 μM ATP): 0.003 to 0.007 µM; Ki (Kv11.1 (hERG); human, HEK293 cells stably transfected with the hERG gene, Ki [Kv1.11 hERG], patch clamp, HEK293 transfected with hERG gene): 15 to 25 µM; IC50 [1, 5]: < 0.5 µM |
|  |  | Cc1nccnc1[C@H](O)c1ccc(F)c(-c2ncnc3cc(N4CCOCC4)ccc23)c1 [Example 83, (R)-[4-Fluoro-3-(7-morpholin-4-yl-quinazolin-4-yl)-phenyl]-(3-methyl-pyrazin-2-yl)methanol] |  | IC50 (DNA-PK; enzymatic, 5 μM ATP): < 0.003 µM; Ki (Kv11.1 (hERG); [6]): > 25 µM; IC50 [1, 5]: < 0.5 µM |
| < 0.003 | < 0.5 | OC(c1cc(-c2ncnc3cc(N4CCOCC4)ccc23)c(F)cc1Cl)c1nccn2cccc12 (stereo not drawn) [Example 359, [2-Chloro-4-fluoro-5-(7-morpholin-4-yl-quinazolin-4-yl)-phenyl]pyrrolo[1,2-a]-pyrazin-1-ylmethanol] | < 10 |  |
| 0.003 to 0.007 | 0.5 to 5 | OC(c1cc(-c2ncnc3cc(N4CCOCC4)ccc23)ccc1Cl)c1ncnc2occc12 (stereo not drawn) [Example 416, [2-Chloro-5-(7-morpholin-4-yl-quinazolin-4-yl)-phenyl]furo[2,3-d}-pyrimidin-4-yl-methanol] |  | Ki (Kv11.1 (hERG); [7]): 10 to 15 µM |
|  |  | OC(c1ccc(F)c(-c2ncnc3cc(N4CCOCC4)ccc23)c1)c1ncccc1OC(F)F (stereo not drawn) [Example 81, (3-Difluoromethoxy-pyridin-2-yl)-[4-fluoro-3-(7-morpholin-4-yl-quinazolin-4-yl)-phenyl]methanol] |  | IC50 (DNA-PK; enzymatic, 5 μM ATP): < 0.003 µM; Ki (Kv11.1 (hERG); [6]): > 25 µM; IC50 [1, 5]: < 0.5 µM |
| > 0.03 | 10 to 30 | O=C1CCCN1c1nccnc1C(O)c1ccc(F)c(-c2ncnc3cc(N4CCOCC4)ccc23)c1 (stereo not drawn) [Example 425, 1-(3-{[4-Fluoro-3-(7-morpholin-4-yl-quinazolin-4-yl)-phenyl]hydroxy-methyl}pyrazin-2-yl)-pyrrolidin-2-one] | > 25 |  |
| 0.007 to 0.03 | 5 to 10 | Cc1nccnc1C(C(N)=O)c1cc(-c2ncnc3cc(N4CCOCC4)ccc23)ccc1Cl (stereo not drawn) [Example 303, 2-[2-Chloro-5-(7-morpholin-4-yl-quinazolin-4-yl)-phenyl]-2-(3-methyl-pyrazin-2-yl)-acetamide] |  | Ki (Kv11.1 (hERG); [7]): 15 to 25 µM |
|  |  | OC(c1ccc(F)c(-c2ncnc3cc(N4CCOCC4)ncc23)c1)c1nccs1 (stereo not drawn) [Example 140, [4-Fluoro-3-(7-morpholin-4-yl-pyrido[4,3-d}-pyrimidin-4-yl)-phenyl]thiazol-2-yl-methanol] |  | IC50 (DNA-PK; Table 5): > 0.03 µM; Ki (Kv11.1 (hERG); Ki [Kv1.11 hERG], Table 5): 15 to 25 µM; IC50 ([1]; Table 5, HCT116 cells): 10 to 30 µM |
| < 0.003 | < 0.5 | Cn1c(C(O)c2cc(-c3ncnc4cc(N5CCOCC5)ccc34)ccc2Cl)cccc1=O (single isomer, unassigned) [Example 364, 6-{[2-Chloro-5-(7-morpholin-4-yl-quinazolin-4-yl)-phenyl]hydroxy-methyl}-1-methyl-1H-pyridin-2-one] | > 25 |  |
| < 0.003 | 0.5 to 5 | OC(c1ccc(F)c(-c2ncnc3cc(N4CCOCC4)ccc23)c1)c1nnc2ccccn12 (stereo not drawn) [Example 343, [4-Fluoro-3-(7-morpholin-4-yl-quinazolin-4-yl)-phenyl]-[1,2,4]-triazolo[4,3-a]pyridin-3-ylmethanol] |  | Ki (Kv11.1 (hERG); [7]): 15 to 25 µM |
| 0.007 to 0.03 | 5 to 10 | NC(=O)C(c1ccc(F)c(-c2ncnc3cc(N4CCOCC4)ccc23)c1)c1ncccc1Cl (stereo not drawn) [Example 313, 2-(3-Chloro-pyridin-2-yl)-2-[4-fluoro-3-(7-morpholin-4-yl-quinazolin-4-yl)-phenyl]acetamide] |  | Ki (Kv11.1 (hERG); [7]): 15 to 25 µM |
|  |  | OC(c1cc(-c2ncnc3cc(N4CCOCC4)ccc23)c(F)cc1F)c1ncnc2sccc12 (stereo not drawn) [Example 90, [2,4-Difluoro-5-(7-morpholin-4-yl-quinazolin-4-yl)-phenyl]thieno[2,3-d}-pyrimidin-4-ylmethanol] |  | IC50 (DNA-PK; enzymatic, 5 μM ATP): < 0.003 µM; Ki (Kv11.1 (hERG); [6]): > 25 µM; IC50 [1, 5]: < 0.5 µM |
| 0.003 to 0.007 | 0.5 to 5 | OC(c1cc(-c2ncnc3cc(N4CCOCC4)ccc23)ccc1Cl)c1ncnn2cccc12 (stereo not drawn) [Example 362, [2-Chloro-5-(7-morpholin-4-yl-quinazolin-4-yl)-phenyl]pyrrolo[2,1-f]-[1,2,4]triazin-4-yl-methanol] | < 10 |  |
| 0.003 to 0.007 | 0.5 to 5 | Cn1c(C(O)c2ccc(F)c(-c3ncnc4cc(N5CCOCC5)ccc34)c2)nccc1=O (stereo not drawn) [Example 360, 2-{[4-Fluoro-3-(7-morpholin-4-yl-quinazolin-4-yl)-phenyl]hydroxy-methyl}-3-methyl-3H-pyrimidin-4-one] | > 25 |  |
| 0.007 to 0.03 | 0.5 to 5 | Cc1cnc(C(C(N)=O)c2cc(-c3ncnc4cc(N5CCOCC5)ccc34)c(F)cc2Cl)c(C)n1 (stereo not drawn) [Example 301, 2-[2-Chloro-4-fluoro-5-(7-morpholin-4-yl-quinazolin-4-yl)-phenyl]-2-(3,5-dimethyl-pyrazin-2-yl)acetamide] | > 25 |  |
| 0.007 to 0.03 | 0.5 to 5 | Cc1nccnc1C(O)c1cc(-c2ncnc3cc(N4CCOCC4)ccc23)ccc1Cl (stereo not drawn) [Example 426, [2-Chloro-5-(7-morpholin-4-yl-quinazolin-4-yl)-phenyl]-(3-methyl-pyrazin-2-yl)-methanol] | > 25 |  |
|  |  | COc1ccc(C(O)c2cc(-c3ncnc4cc(N5CCOCC5)ccc34)c(F)cc2F)nc1 (stereo not drawn) [Example 224, [2,4-Difluoro-5-(7-morpholin-4-yl-quinazolin-4-yl)-phenyl]-(5-methoxy-pyridin-2-yl)methanol] |  | IC50 (DNA-PK; Table 7): 0.003 to 0.007 µM; Ki (Kv11.1 (hERG); Ki [Kv1.11 hERG], Table 7): 15 to 25 µM; IC50 ([1]; Table 7, HCT116 cells): 0.5 to 5 µM |
|  |  | COc1cc(C(O)c2ccc(F)c(-c3ncnc4cc(N5CCOCC5)ccc34)c2)c(Cl)nn1 (stereo not drawn) [Example 7, (3-Chloro-6-methoxy-pyridazin-4-yl)-[4-fluoro-3-(7-morpholin-4-yl-quinazolin-4-yl)phenyl]-methanol] |  | IC50 (DNA-PK; enzymatic, 5 μM ATP): 0.003 to 0.007 µM; Ki (Kv11.1 (hERG); [4]): 15 to 25 µM; IC50 [1, 5]: < 0.5 µM |
| < 0.003 | < 0.5 | OC(c1ccc(F)c(-c2ncnc3cc(N4CCOCC4)ccc23)c1)c1ncnc2ccoc12 (stereo not drawn) [Example 442, [4-Fluoro-3-(7-morpholin-4-yl-quinazolin-4-yl)-phenyl]furo[3,2-d}-pyrimidin-4-yl-methanol] | > 25 |  |
